Reference: ChEMBL document CHEMBL1201862, “PubChem BioAssay data set” (2004)
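1) Cells in 96-well plates. 2) Compound, 48 h, 5 concentrations. 3) Linear interpolation between surrounding doses. 4) Unreached endpoint = highest concentration. GI50: concentration for 50% inhibition of growth.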 Calls of active or inactive are those of the source. Cut-off read from the data, not from the text of the source: active = GI50 up to about 1.1 µM and inactive = higher.

Legend:
Experiment in all cases: inhibition of tumour cell growth, NCI panel, 48 h
HCT-15 = system: HCT-15
TK-10 = system: TK-10
LOX IMVI = system: LOX IMVI
SNB-75 = system: SNB-75
SF-295 = system: SF-295
Hs-578T = system: Hs-578T
RXF 393 = system: RXF 393
HL-60 = system: HL-60
A498 = system: A498
786-0 = system: 786-0
HCT-116 = system: HCT-116
T47D = system: T47D
M19-MEL = system: M19-MEL
CAKI-1 = system: CAKI-1
MCF7 = system: MCF7
SW-620 = system: SW-620
NCI/ADR-RES = system: NCI/ADR-RES
M14 = system: M14
SK-MEL-5 = system: SK-MEL-5
PC-3 = system: PC-3

Row | SMILES | GI50 (HCT-15) [µM] | GI50 (TK-10) | GI50 (LOX IMVI) | GI50 (SNB-75) | GI50 (SF-295) | GI50 (Hs-578T) | GI50 (RXF 393) | GI50 (HL-60) | GI50 (A498) | GI50 (786-0) | GI50 (HCT-116) | GI50 (T47D) | GI50 (M19-MEL) | GI50 (CAKI-1) | GI50 (MCF7) | GI50 (SW-620) | GI50 (NCI/ADR-RES) | GI50 (M14) | GI50 (SK-MEL-5) | GI50 (PC-3)
1 | Nc1ccn(C2CCC(CO)O2)c(=O)n1 (centres undefined) | > 100 | > 1000 µM (inactive) | > 100 µM (inactive) | > 100 µM (inactive) | > 100 µM (inactive) | > 1 mM (inactive) | > 100 µM (inactive) | 698 µM (inactive) | > 91.8 µM (inactive) | > 1000 µM (inactive) | > 100 µM (inactive) | > 1 mM (inactive) | > 100 µM (inactive) | > 100 µM (inactive) | 99.8 µM (inactive) | > 94.8 µM (inactive) | 159 µM (inactive) | > 1000 µM (inactive) | > 100 µM (inactive) | > 1 mM (inactive)
2 | COc1ccc2nc3c(C(=O)NCCN(C)C)cccc3nc2c1 | 3.93 | 3.37 µM (inactive) | 3.34 µM (inactive) | 7.35 µM (inactive) | 6.41 µM (inactive) | – | – | 4.23 µM (inactive) | 1.84 µM (inactive) | 7 µM (inactive) | 3.32 µM (inactive) | – | 5.05 µM (inactive) | 3.75 µM (inactive) | – | 3.1 µM (inactive) | – | 5.56 µM (inactive) | 4.31 µM (inactive) | –
3 | Cc1cc(NCCCCCCCCNc2cc(C)nc3cc(N)ccc23)c2ccc(N)cc2n1 | 41.5 | 44.9 µM (inactive) | 17.1 µM (inactive) | 16.4 µM (inactive) | 18.2 µM (inactive) | – | 27.7 µM (inactive) | 0.566 µM (active) | 39.6 µM (inactive) | 18.9 µM (inactive) | – | – | 15.5 µM (inactive) | 46.8 µM (inactive) | – | – | – | 16.7 µM (inactive) | 10.9 µM (inactive) | –
4 | CCc1nc2c(O)ccc(O)c2nc1C | 16.4 | 22.5 µM (inactive) | 16.2 µM (inactive) | 20.8 µM (inactive) | 20 µM (inactive) | – | 11.5 µM (inactive) | 2.93 µM (inactive) | 20.9 µM (inactive) | 13.5 µM (inactive) | 8.38 µM (inactive) | – | 7.35 µM (inactive) | 18.1 µM (inactive) | – | 2.15 µM (inactive) | – | 15 µM (inactive) | 17.5 µM (inactive) | –
5 | CCOC(=O)C=C1CCC2(CC1)OCCO2 | > 100 | > 100 µM (inactive) | > 100 µM (inactive) | > 100 µM (inactive) | > 100 µM (inactive) | – | > 100 µM (inactive) | > 100 µM (inactive) | > 100 µM (inactive) | > 100 µM (inactive) | > 100 µM (inactive) | – | > 100 µM (inactive) | > 100 µM (inactive) | – | > 100 µM (inactive) | – | > 100 µM (inactive) | > 100 µM (inactive) | –
6 | CC12OC3CC(O1)C1(C=O)C4CCC5(C)C(c6ccc(=O)oc6)CCC5(O)C4CCC1(C3)O2 (centres undefined) | 0.212 | 0.143 µM (active) | 0.177 µM (active) | 0.252 µM (active) | 0.0986 µM (active) | – | 0.104 µM (active) | 0.189 µM (active) | 0.33 µM (active) | 0.122 µM (active) | 0.0537 µM (active) | – | 0.258 µM (active) | 0.207 µM (active) | – | 0.177 µM (active) | – | 0.242 µM (active) | 0.0895 µM (active) | –
7 | N#Cc1c2nc3ccccc3nc2n2ccccc12 | > 100 | > 100 µM (inactive) | > 100 µM (inactive) | > 100 µM (inactive) | – | – | – | > 100 µM (inactive) | 76 µM (inactive) | > 100 µM (inactive) | > 100 µM (inactive) | – | > 100 µM (inactive) | > 100 µM (inactive) | – | > 100 µM (inactive) | – | > 100 µM (inactive) | > 100 µM (inactive) | –
8 | O=C1C(Cl)C(c2cc(Br)ccc2O)N1n1cnc2ccccc2c1=O (centres undefined) | 5.13 | 31.8 µM (inactive) | 6.64 µM (inactive) | 15.2 µM (inactive) | 16.8 µM (inactive) | – | 28.9 µM (inactive) | 1.72 µM (inactive) | 65.8 µM (inactive) | 17.3 µM (inactive) | 5.96 µM (inactive) | – | 10.7 µM (inactive) | 21.3 µM (inactive) | – | 10 µM (inactive) | – | 11.3 µM (inactive) | 16.8 µM (inactive) | –
9 | CC(C)(Br)C(=O)C(Br)Br | – | 9.04 µM (inactive) | 4.86 µM (inactive) | 13.7 µM (inactive) | 18.7 µM (inactive) | 0.00689 mM (inactive) | 3.16 µM (inactive) | 1.9 µM (inactive) | > 39.8 µM (inactive) | 13.8 µM (inactive) | 4.26 µM (inactive) | 0.00622 mM (inactive) | 6.01 µM (inactive) | 1.95 µM (inactive) | 6.38 µM (inactive) | 1.89 µM (inactive) | 4.82 µM (inactive) | 2.44 µM (inactive) | 12.4 µM (inactive) | 0.0054 mM (inactive)
